Data as given in the supplement of paper PMC11208160.

Assay: recombinant UMI read abundance after kanamycin selection (control-corrected) (log10(CPM+1)); higher = more efficient recombination; extreme values may be limits of the assay; sequences stand for … in AGTGCAGAGAAAATCGGCCAGTTTTCTCTGCCTGCAGTCCGCATGCCGTGGGACCCCTTGGGTTCTAACCTGTTGCCTAGATTTATGCAGCGGACTGCCTTTCTCCCAAAGTGATAAACCGG…AGGTTGGTTTCACT; site = the 11-nt donor
Description: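 Pooled E. coli donor-specificity screen for the IS621 bridge recombinase. Each library member carries a reprogrammed 11-nt donor and a full-length LE bridge RNA expressed in cis from the natural promoter, with a paired donor-binding loop (8-nt LDG + 4-nt RDG) and a target-binding loop fixed to T5. It is co-electroporated with a T5 target plasmid; recombinase is induced with 0.07 mM IPTG and recombinants are selected on kanamycin. UMIs are counted as CPM, averaged over two biological replicates and corrected by the unselected control. Molecule = full bridge RNA written as DNA, built from the T5 scaffold: LDG = donor specificity nt 1-8, RDG = reverse complement of nt 8-11.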
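Also: IS621 bridge recombinase in Escherichia coli cells against a fixed T5 target plasmid.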

In order of falling “recombinant UMI read abundance (log10)” value:
1. AATGGGTCATGGACCGGTTTTCCCGGTAATCCGTATTTGAC (site AATGGGTCTGT)  2.68
2. AAGTTCTCATGGACCGGTTTTCCCGGTAATCCGTATTTGCC (site AAGTTCTCTGG)  2.31
3. AAGTTGGCATGGACCGGTTTTCCCGGTAATCCGTATTTGCA (site AAGTTGGCTTG)  2.05
4. AATGCGTCATGGACCGGTTTTCCCGGTAATCCGTATTTGAC (site AATGCGTCTGT)  2.03
5. AATAGAACATGGACCGGTTTTCCCGGTAATCCGTATTTGAG (site AATAGAACTCT)  2
6. AATATAACATGGACCGGTTTTCCCGGTAATCCGTATTTGCT (site AATATAACTAG)  1.99
7. AAGTTTACATGGACCGGTTTTCCCGGTAATCCGTATTTGAC (site AAGTTTACTGT)  1.97
8. AATAGGACATGGACCGGTTTTCCCGGTAATCCGTATTTGCG (site AATAGGACTCG)  1.97
9. AATAAGACATGGACCGGTTTTCCCGGTAATCCGTATTTGAA (site AATAAGACTTT)  1.86
10. AATGTGTCATGGACCGGTTTTCCCGGTAATCCGTATTTGAG (site AATGTGTCTCT)  1.82
11. AATGTGTCATGGACCGGTTTTCCCGGTAATCCGTATTTGAT (site AATGTGTCTAT)  1.66
12. AATAGAACATGGACCGGTTTTCCCGGTAATCCGTATTTGAG (site ACTAGAACTCT)  1.6
13. AATGAGACATGGACCGGTTTTCCCGGTAATCCGTATTTGGT (site AATGAGACTAC)  1.58
14. AATGTAACATGGACCGGTTTTCCCGGTAATCCGTATTTGCG (site AATGTAACTCG)  1.48
15. AATATAACATGGACCGGTTTTCCCGGTAATCCGTATTTGCT (site AATGTAACTAG)  1.47
16. AATGTGTCATGGACCGGTTTTCCCGGTAATCCGTATTTGAG (site AATGTGTCTAT)  1.43
17. AATGAGACATGGACCGGTTTTCCCGGTAATCCGTATTTGGT (site AGTGAGACTAC)  1.41
18. AATAGTGCATGGACCGGTTTTCCCGGTAATCCGTATTTGGT (site AATAGTGCTAC)  1.23
19. AATGATGCATGGACCGGTTTTCCCGGTAATCCGTATTTGGA (site AATAATGCTTC)  1.08
20. AATCCATCATGGACCGGTTTTCCCGGTAATCCGTATTTGTA (site AATCCATCTTA)  1.06
21. AATGATGCATGGACCGGTTTTCCCGGTAATCCGTATTTGGA (site AATGATGCTTC)  1.06
22. AATGGTGCATGGACCGGTTTTCCCGGTAATCCGTATTTGGT (site AATGGTGCTAC)  1.04
23. AATGATGCATGGACCGGTTTTCCCGGTAATCCGTATTTGGA (site AATCATGCTTC)  1.01
24. AATGTACCATGGACCGGTTTTCCCGGTAATCCGTATTTGCT (site AATGTATCTAG)  0.926
25. AATGTGTCATGGACCGGTTTTCCCGGTAATCCGTATTTGAG (site AATGTGTCTTT)  0.832
26. AATGGGTCATGGACCGGTTTTCCCGGTAATCCGTATTTGAC (site AATGCGTCTGT)  0.826
27. AATGTGTCATGGACCGGTTTTCCCGGTAATCCGTATTTGAG (site AATGTGTCTGT)  0.801
28. AATGAGACATGGACCGGTTTTCCCGGTAATCCGTATTTGGT (site ACTGAGACTAC)  0.724
29. AATAGTGCATGGACCGGTTTTCCCGGTAATCCGTATTTGGT (site ACTAGTGCTAC)  0.687
30. AATGAGACATGGACCGGTTTTCCCGGTAATCCGTATTTGGT (site ATTGAGACTAC)  0.678
31. AATCATGCATGGACCGGTTTTCCCGGTAATCCGTATTTGGA (site AATAATGCTTC)  0.666
32. AATCATGCATGGACCGGTTTTCCCGGTAATCCGTATTTGGA (site AATTATGCTTC)  0.636
33. AATATAACATGGACCGGTTTTCCCGGTAATCCGTATTTGCT (site AATCTAACTAG)  0.615
34. AATAGTGCATGGACCGGTTTTCCCGGTAATCCGTATTTGGT (site AGTAGTGCTAC)  0.602
35. AATCATGCATGGACCGGTTTTCCCGGTAATCCGTATTTGGA (site AATCATGCTTC)  0.584
36. AATGATGCATGGACCGGTTTTCCCGGTAATCCGTATTTGGA (site AATTATGCTTC)  0.561
37. AATAGTGCATGGACCGGTTTTCCCGGTAATCCGTATTTGGT (site ATTAGTGCTAC)  0.53
38. AATCTGGCATGGACCGGTTTTCCCGGTAATCCGTATTTGTA (site AATCTGGCTTA)  0.472
39. AATGTAACATGGACCGGTTTTCCCGGTAATCCGTATTTGTT (site AATGTAACTAG)  0.466
40. AATAGAACATGGACCGGTTTTCCCGGTAATCCGTATTTGAG (site AGTAGAACTCT)  0.412
41. AATCATGCATGGACCGGTTTTCCCGGTAATCCGTATTTGGA (site AATGATGCTTC)  0.351
42. AATCTCACATGGACCGGTTTTCCCGGTAATCCGTATTTGGA (site AATCTCACTTC)  0.341
43. AATAGAACATGGACCGGTTTTCCCGGTAATCCGTATTTGAG (site ATTAGAACTCT)  0.329
44. AATGTAACATGGACCGGTTTTCCCGGTAATCCGTATTTGTT (site AATGTAACTAA)  0.321
45. AATGCGTCATGGACCGGTTTTCCCGGTAATCCGTATTTGAC (site AATGTGTCTGT)  0.269
46. AATGGGTCATGGACCGGTTTTCCCGGTAATCCGTATTTGAC (site AATGAGTCTGT)  0.146
47. AATTATCCATGGACCGGTTTTCCCGGTAATCCGTATTTGGA (site AATTATACTTC)  0.126
48. AATATAACATGGACCGGTTTTCCCGGTAATCCGTATTTGCT (site AATTTAACTAG)  0.0427
49. AATGTAACATGGACCGGTTTTCCCGGTAATCCGTATTTGTT (site AATGTAACTAT)  0.0338
50. AATTAGCCATGGACCGGTTTTCCCGGTAATCCGTATTTGAG (site AATTAGCCTCT)  0.017
51. AAGTTCCCATGGACCGGTTTTCCCGGTAATCCGTATTTGTG (site ATGTTCCCTCA)  0.0155
52. AAGTTCCCATGGACCGGTTTTCCCGGTAATCCGTATTTGTG (site AGGTTCCCTCA)  0.0112
53. AATGTGTCATGGACCGGTTTTCCCGGTAATCCGTATTTGAT (site AATGTGTCTTT)  0.0089
54. AATGCAGCATGGACCGGTTTTCCCGGTAATCCGTATTTGGG (site AATGCAGCTCC)  0.00829
55. AATGTAACATGGACCGGTTTTCCCGGTAATCCGTATTTGTT (site AATGTAACTAC)  0.00716
56. AATGTACCATGGACCGGTTTTCCCGGTAATCCGTATTTGCT (site AATGTAGCTAG)  0.00499
57. AATGCAACATGGACCGGTTTTCCCGGTAATCCGTATTTGCT (site AATGCAACTAG)  0.00461
58. AATGTGTCATGGACCGGTTTTCCCGGTAATCCGTATTTGAT (site AATGTGTCTCT)  0.003
59. AATGTAACATGGACCGGTTTTCCCGGTAATCCGTATTTGCG (site AATGTAACTTG)  0.00267
60. AAGTTCCCATGGACCGGTTTTCCCGGTAATCCGTATTTGTG (site ACGTTCCCTCA)  0
61. AATGCAACATGGACCGGTTTTCCCGGTAATCCGTATTTGCT (site AATGAAACTAG)  0
62. AATGCAACATGGACCGGTTTTCCCGGTAATCCGTATTTGCT (site AATGGAACTAG)  0
63. AATGCAACATGGACCGGTTTTCCCGGTAATCCGTATTTGCT (site AATGTAACTAG)  0
64. AATGCGTCATGGACCGGTTTTCCCGGTAATCCGTATTTGAC (site AATGAGTCTGT)  0
65. AATGCGTCATGGACCGGTTTTCCCGGTAATCCGTATTTGAC (site AATGGGTCTGT)  0
66. AATGGGTCATGGACCGGTTTTCCCGGTAATCCGTATTTGAC (site AATGTGTCTGT)  0
67. AATGTAACATGGACCGGTTTTCCCGGTAATCCGTATTTGCG (site AATGTAACTAG)  0
68. AATGTAACATGGACCGGTTTTCCCGGTAATCCGTATTTGCG (site AATGTAACTGG)  0
69. AATGTACCATGGACCGGTTTTCCCGGTAATCCGTATTTGCT (site AATGTAACTAG)  0
70. AATGTACCATGGACCGGTTTTCCCGGTAATCCGTATTTGCT (site AATGTACCTAG)  0
71. AATGTGTCATGGACCGGTTTTCCCGGTAATCCGTATTTGAT (site AATGTGTCTGT)  0
72. AATTATCCATGGACCGGTTTTCCCGGTAATCCGTATTTGGA (site AATTATCCTTC)  0
